Data: patent US8618074B2, “GPCR enhanced neuroprotection to treat brain injury” (Board of Regents of the University of Texas System, priority 2007, dated 2013)

What was measured:
[1] = tested on: astrocytes; experiment: Time until mitochondrial membrane potential (ΔΨ, TMRE) collapse during t-BuOOH oxidative stress; assay type: cell-based, mouse; settings: for average time until ΔΨ collapse: XeC 25 μM pretreatment + ATP 10 μM, then t-BuOOH 100 μM; for time until ΔΨ collapse: then t-BuOOH
Method: Primary cultures of astrocytes were prepared as previously published (Lin et al., 2005). C57BL/6 male mice were purchased from the National Institute of Aging and maintained in standard accredited housing conditions at the University of Texas Health Science Center Animal Facility. Animal protocols were approved by our Institutional Animal Care Use Committee. Astrocytes were cultured in DMEM F-12 media (Invitrogen, # 11039-021) supplemented with 2 mM glutamine, nonessential amino acids, 10% fetal calf serum, 100 U/ml penicillin/streptomycin (Cambrex BioScience Walkersville, #17-602E) and 1% fungizone (Invitrogen, #15290-018) at 37° C. in an atmosphere containing 5% CO2. The culture medium was changed every 3-5 days. Confluent cells were gently removed by a trypsin EDTA solution and re-plated on 35 mm glass bottom chambers (Bioptechs #04200415C) prior to imaging experiments 3-4 days later. Cells were maintained in plastic culture flasks until the final re-seeding of cells onto a glass bottom chamber and were passed up to 3 times for astrocyte only experiments. For co-culture experiments with neurons, primary astrocytes were plated directly onto corning transwell-clear permeable supports, which physically separates the two cell-types by ˜1 mm (# 07-200-170, Fisher scientific). Astrocytes were cultured in transwells until they were ˜70% confluent. Mouse cortical neurons (Cambrex Bio Science Walkersville Inc., # M-CX-300) were then cultured onto 6 well mat-tek glass bottom plates and maintained in Neurobasal Medium (Invitrogen, # 21103-049), 2 mM L-Glutamine (Cambrex BioScience Walkersville, #17-605E), 100 U/ml penicillin/streptomycin (Cambrex BioScience Walkersville, #17-602E) and B-27 with (Invitrogen, #17504-044) and without antioxidants (Invitrogen, #10889-038), which controls glia contamination to less than 0.5%. The transwell supports with cultured astrocytes were placed in the neuron seeded glass bottom chambers for four days before imaging and both cell types were then maintained in neuronal media. For neuron only experiments, the astrocytes on the transwell supports were removed prior to treatments and imaging.
(§1) Mitochondrial membrane potentials (ΔΨs) was measured as previously described using the potential sensitive dye tetra-methyl rhodamine ethyl ester (TMRE, Molecular Probes, #T-669) (Lin and Lechleiter, 2002). Images were acquired with a 60× oil 1.4 NA objective on a Nikon PCM2000 confocal microscope custom adapted for two-photon imaging. A Ti-sapphire Coherent Mira 900 Laser pumped with a 5W Verdi laser (Coherent Inc., Santa Clara, Calif.) was used to excite TMRE at 800 nm A neutral-density filter wheel was used to attenuate the laser intensity so that no detectable photobleaching of TMRE was observed.
To investigate this, primary cultures of astrocytes were prepared from the brains of young (4-6 months) and old (26-28 months) mice and re-plated on glass coverslips prior to each imaging experiment as previously described. Seeded glass coverslips were then sealed in an open chamber (Bioptechs Delta T) and perfused at 37° C. with the potential sensitive dye tetramethyl rhodamine ethyl ester (TMRE, 200 nM, Molecular Probes/Invitrogen) to label astrocyte mitochondria. Mitochondrial membrane potentials (ΔΨs) were measured every 5 minutes using two-photon microscopy. Each image is a maximum intensity projection of a z-stack of six optical sections (1-μm steps). Scale bar is 10 μm. Plated cells were continuously perfused at 37° C. with culture medium containing TMRE (200 nM) and imaged with 2-photon microscopy (800 nm). Oxidative stress was applied to the cells in the perfusate with t-BuOOH (100 μM). Cell viability was then monitored by the collapse of ΔΨ (TMRE fluorescence) to 10% of its initial value. The time course of ΔΨ collapse is plotted for 3 astrocytes (A1, A2, A3) in each culture (FIGS. 1B and 2B). Fluorescent units are scaled to 100% at 0 hours. […]

[2] = tested on: astrocytes; experiment: Fura-2 two-photon imaging of intracellular Ca2+ response; assay type: cell-based, mouse; settings: for Ca2+ response: then IP3-BM
Method: Ca^2+ activity was imaged as previously described (Camacho and Lechleiter, 1995). In brief, cultured astrocytes were incubated with the fura-2 am (Molecular Probes, #F-1221) 30 min prior to the experiment. Images were acquired with two-photon excitation (800 nm) at the rate of 1.5 images/ sec. […] Images were analyzed with Image J and ANALYZE® software (the Mayo Foundation, Rochester, MN). The D-enantiomer of the 1P3-BM ester was synthesized by Stuart Conway in the Cambridge University Chemical Laboratory by using a modification of the protocol of Tsien and co-workers (Li et al., 1997).
The primary response of glial cells to extracellular ATP is an increase in intracellular Ca^2+. To investigate whether the protective effect of ATP could be initiated by a Ca^2+ response, we loaded cultures of astrocytes with the Ca^2+ indicator dye Fura-2 AM (10 μM for 30 minutes). Fura-2 fluorescence was imaged with 2-photon microscopy using 800 nm excitation. At this wavelength, fluorescence is primarily due to the Ca^2+ free form of fura-2. […] When young astrocyte cultures were exposed to extracellular ATP (10 μM for 10 minutes), the peak intracellular Ca^2+ (−ΔF/F) was increased to 0.46±0.02 (n=25, pooled from 2 experiments). […] We tested whether the ATP-induced Ca^2+ response could be attributed to the metabotropic pathway, since IP3 mediated Ca^2+ release can stimulate mitochondrial energy production as well as sensitize mitochondria to apoptotic stimuli. Astrocytes cultured from old mice were pretreated with Xestospongin C (XeC, 25 μM for 30 minutes), which is a competitive inhibitor of IP3 binding to the IP3R. […] This is consistent with other reports showing that activation of the ionotropic P2X receptor activation also increases Ca^2+ in cultured astrocytes. To determine whether the metabotropic pathway was involved with the protective effect of extracellular ATP, we subsequently exposed the XeC/ATP treated astrocytes to oxidative stress. As described above, the perfusate contained t-BuOOH (100 μM) and TMRE (200 nM) to monitor ΔΨ. Under these experimental conditions, the average time until ΔΨ collapse was reduced to 5.48±0.22 (n=23, pooled from 2 experiments) in young astrocytes (FIG. 1C) and to 4.02±0.18 h (n=19, pooled from 2 experiments) in old astrocytes (FIG. 2C). […] We concluded that the protective effect of ATP on astrocytes was mediated by P2Y-receptors (P2Y-Rs).

[3] = tested on: astrocytes; experiment: Mitochondrial membrane potential ΔΨ estimated as log(Fmito/Fcyto) with TMRE; assay type: cell-based, mouse
Method: as §1
We confirmed this by directly measuring the effect of ATP, ATP plus XeC and IP3-BM treatments on ΔΨ. Cultured cells were labeled with TMRE (200 nM) and imaged with a two-photon microscope as described above. ΔΨ was estimated as the log (Fmito/Fcyto) where Fmito is the peak fluorescent intensity observed in single mitochondria (Farkas et al., 1989; Lin et al., 2005). The mean values of individual mitochondria from a single cell were used for the mitochondrial potential estimate. Fcyto represents the lowest value of TMRE fluorescence observed within the boundaries of the same cell. […] FIG. 5E depicts a histogram plot showing average mitochondrial membrane potentials before and after treatment. The mean resting ΔΨs for untreated (Buffer), ATP-treated, ATP plus XeC-treated and IP3-BM-treated were 1.84+0.01 (n=78 mitochondria, pooled from 2 experiments), 1.84+0.01 (n=85 mitochondria), 1.85+0.01 (n=80 mitochondria) and 1.86+0.01 (n=48 mitochondria), respectively. Astrocyte cultures were then exposed to their respective treatments and the same fields of mitochondria were imaged 10 minutes later.

[4] = tested on: Rose Bengal (RB)-induced cerebral infarcts in mouse cortex; experiment: RB-induced photothrombosis lesion size in parietal cortex of GFAP-GFP transgenic mice (confocal); assay type: in vivo; settings: 24 and 48 hours post-ischemia; with versus without MRS2365
Description: A precise clot in a blood vessel is induced using the photosensitive dye Rose Bengal (RB) in the mouse cortex. The blood vessels were simultaneously imaged by injecting the red fluorescent dye […] into the mouse circulation. The targeted blood vessel is illuminated by a 543-nm laser after tail vein injection of RB. RB is activated by the laser and interacts with molecular oxygen to form singlet oxygen, which is known to damage endothelial cells within the blood vessel, thereby triggering the natural clotting cascade and leading to formation of a clot. Pharmacological agents can be introduced at the time of photoactivation which also causes the breakdown of the blood-brain barrier.
The parietal cortex of GFAP-GFP transgenic mice was imaged using confocal microscopy and a 40×NA 0.8 or 10×NA 0.45 objective. The same region of the cortex was periodically imaged prior to RB injection, and 10, 20, 30, and 40 minutes post-RB injection. RB is impermeable to the BBB and is cleared quickly under physiological conditions.
The parietal cortex of GFAP-GFP transgenic mice was imaged using confocal microscopy and a 10×0.45 NA objective. […] The size of the lesion was calculated in Image J by tracing the region of the cortex that was void of GFP expressing astrocytes. […]

[5] = tested on: HEK293 cells that were overexpressing type 1 muscarinic acetylcholine receptors (mAchR1s); experiment: Cell death induced by t-BuOOH or ceramide with IP3-gated Ca2+ release stimulation; assay type: cell-based, human; settings: ACh 1 μM; t-BuOOH (100 μM, 3 hrs) or ceramide (40 μM, 12 hrs)
Description: P2 purinoceptors are a class of cell surface receptors, subdivided into either the ligand-gated ionotropic receptors (P2X) or G-protein-coupled metabotropic receptors (P2Y)). We focused our work on the P2Y-Rs due to their strong coupling to Gq/11 signaling pathway in astrocytes. Activation of P2Y-receptors stimulates PLCB isoenzymes, increasing inositol triphosphate (IP3) formation and subsequent Ca^2+ mobilization from thapsigargin sensitive stores in the endoplasmic reticulum (ER). Thapsigargin is a specific inhibitor of the sarco-endoplasmic reticulum Ca^2+ ATPases (SERCAs). As mentioned above, IP3-mediated Ca^2+ release is efficiently sequestered by mitochondria, due to its physically close proximity the Ca^2+ channel pore. Increased mitochondrial Ca^2+ uptake via the Ca^2+ uniporter rapidly stimulates Ca^2+ sensitive dehydrogenases and subsequently, increases respiration and ATP production. […] Another important point to make with regard to mitochondrial Ca^2+ signaling is that high matrix Ca^2+ is generally thought to sensitize cells to cell death stimuli. During prolonged periods or with sufficiently high concentrations, matrix Ca^2+ induces opening of the mitochondrial permeability transition pore (MPT). Recent work has identified the mitochondrial targeted cyclophilin D as a key player in Ca^2+ stimulated cell death. […]

C1CCC[C@H]2CCCN3CC[C@@H](CCCCCC[C@@H]4CCCN5CC[C@@H](CC1)O[C@@H]45)O[C@@H]23 [XeC, Xestospongin C] was tested, and the “average time until ΔΨ collapse” value ([1]; old astrocytes) was 4.02 ± 0.18 h, the “time until ΔΨ collapse” value ([1]; old astrocytes, XeC pretreatment + IP3-BM) was 4.48±0.07 and the “average time until ΔΨ collapse” value ([1]; young astrocytes) was 5.48 ± 0.22 h. For the same molecule, the “time until ΔΨ collapse” value ([1]; young astrocytes, XeC pretreatment + IP3-BM) was 4.73±0.05, the “peak Ca2+ response” value ([2]; old astrocytes, XeC 25 μM 30 min pretreatment, then ATP 10 μM) was 0.28±0.04 and the “Ca2+ response” value ([2]; old astrocytes, XeC 25 μM 30 min pretreatment) was 0.13±0.01. For the same molecule, the “Ca2+ response” value ([2]; young astrocytes, XeC 25 μM 30 min pretreatment) was 0.11±0.01 and the “ΔΨ (log Fmito/Fcyto) after treatment” value ([3]; pretreated with XeC and then exposed to ATP) was 1.87±0.01.

With CSc1nc(N)c2ncn([C@H]3[C@H](O)[C@H](O)[C@]4(COP(=O)(O)OP(=O)(O)O)C[C@H]34)c2n1 [MRS2365, N-methanocarba-2MeSADP] the “size of the lesion (cortex void of GFP expressing astrocytes)” value [4] was “greatly reduces the size of the lesion”.

CC(=O)OCC[N+](C)(C)C [ACh] was tested, and the cell death [5] was “significantly higher”.

For CCCC(=O)OCOP(=O)(OCOC(=O)CCC)O[C@@H]1[C@H](O)[C@H](O)[C@@H](OP(=O)(OCOC(=O)CCC)OCOC(=O)CCC)[C@H](OP(=O)(OCOC(=O)CCC)OCOC(=O)CCC)[C@H]1O [IP3-BM, butyryloxymethyl ester of IP3], the “time until ΔΨ collapse” value ([1]; old astrocytes, IP3-BM 25 μM fifteen minutes) was 6.32±0.35, the “time until ΔΨ collapse” value ([1]; young astrocytes, IP3-BM 25 μM fifteen minutes) was 6.82±0.32 and the “peak Ca2+ response” value ([2]; old astrocytes, IP3-BM 25 μM) was 0.24±0.02. The “peak Ca2+ response” value ([2]; young astrocytes, IP3-BM 25 μM) was 0.34±0.02 and the “ΔΨ (log Fmito/Fcyto) after treatment” value ([3]; treating astrocytes for 10 minutes) was 2.02±0.01.
